According to ChEMBL document CHEMBL3102811, “Synthesis and anti-inflammatory activity of indole glucosinolates” (2014):

How the values were obtained:
Type in all cases: functional
THP-1 [1] = assay: Antiinflammatory activity in PMA-treated human THP1 cells assessed as LPS-induced TNFalpha secretion at 1 uM after 4 hrs by sandwich ELISA relative to control
THP-1 [2] = assay: Antiinflammatory activity in PMA-treated human THP1 cells assessed as LPS-induced TNFalpha secretion at 15 uM after 4 hrs by sandwich ELISA relative to control
THP-1 [3] = assay: Antiinflammatory activity in PMA-treated human THP1 cells assessed as inhibition of LPS-induced TNFalpha secretion at 1 uM after 4 hrs by sandwich ELISA relative to control; settings: THP-1, 4 h
THP-1 [4] = assay: Antiinflammatory activity in PMA-treated human THP1 cells assessed as LPS-induced TNFalpha secretion at 10 uM after 4 hrs by sandwich ELISA relative to control
THP-1 [5] = assay: Antiinflammatory activity in PMA-treated human THP1 cells assessed as inhibition of LPS-induced TNFalpha secretion at 15 uM after 4 hrs by sandwich ELISA relative to control; settings: THP-1, 4 h
THP-1 [6] = assay: Antiinflammatory activity in PMA-treated human THP1 cells assessed as LPS-induced TNFalpha secretion at 0.10 uM after 4 hrs by sandwich ELISA relative to control
THP-1 [7] = assay: Antiinflammatory activity in PMA-treated human THP1 cells assessed as LPS-induced TNFalpha secretion at 5 uM after 4 hrs by sandwich ELISA relative to control
THP-1 [8] = assay: Antiinflammatory activity in PMA-treated human THP1 cells assessed as LPS-induced TNFalpha secretion at 0.5 uM after 4 hrs by sandwich ELISA relative to control
THP-1 [9] = assay: Antiinflammatory activity in PMA-treated human THP1 cells assessed as inhibition of LPS-induced TNFalpha secretion at 0.5 uM after 4 hrs by sandwich ELISA relative to control; settings: THP-1, 4 h
THP-1 [10] = assay: Antiinflammatory activity in PMA-treated human THP1 cells assessed as inhibition of LPS-induced TNFalpha secretion at 10 uM after 4 hrs by sandwich ELISA relative to control; settings: THP-1, 4 h
THP-1 [11] = assay: Antiinflammatory activity in PMA-treated human THP1 cells assessed as inhibition of LPS-induced TNFalpha secretion at >=10 uM after 4 hrs by sandwich ELISA relative to control

SMILES | Activity (THP-1 [1]) [pg/mg] | Activity (THP-1 [2]) [pg/mg] | inhibition at 1 µM (THP-1 [3]) [%] | Activity (THP-1 [4]) [pg/mg] | inhibition at 15 µM (THP-1 [5]) [%] | Activity (THP-1 [6]) [pg/mg] | Activity (THP-1 [7]) [pg/mg] | Activity (THP-1 [8]) [pg/mg] | inhibition at 0.5 µM (THP-1 [9]) [%] | inhibition at 10 µM (THP-1 [10]) [%] | inhibition (INH) (THP-1 [11])
O=S(=O)([O-])O/N=C(\Cc1c[nH]c2ccccc12)S[C@@H]1O[C@H](CO)[C@@H](O)[C@H](O)[C@H]1O.[K+] | 196.65 | 136.79 | ≥ 24 | 158.94 | 54 | 215.57 |  |  |  |  | 
Oc1cc(O)c2c(c1)OC(c1ccc(O)c(O)c1)C(O)C2 (centres undefined) [CATECHIN] |  | 255.94 |  |  | 48 |  | 282.65 | 303.98 | 37 |  | 
COc1cccc2[nH]cc(C/C(=N\OS(=O)(=O)[O-])S[C@@H]3O[C@H](CO)[C@@H](O)[C@H](O)[C@H]3O)c12.[K+] | 187.45 | 135.01 | 24 | 146.53 | 46 | 214.36 |  |  |  | 41 | 
COn1cc(C/C(=N\OS(=O)(=O)[O-])S[C@@H]2O[C@H](CO)[C@@H](O)[C@H](O)[C@H]2O)c2ccccc21.[K+] | 228.9 | 169.06 | ≥ 24 | 181.1 |  | 251.69 |  |  |  |  | >=32%
